Tests used:
[1] = biological target: Excitatory amino acid transporter 2 (Homo sapiens, UniProt P43004); test: Displacement of [3H]D-Asp from human EAAT2 receptor expressed in HEK293 cells
[2] = biological target: T1, Excitatory amino acid transporter 3 (Homo sapiens, UniProt P43005); test: Displacement of [3H]D-Asp from human EAAT3 receptor expressed in HEK293 cells
T1 sequence (P43005 whole entry): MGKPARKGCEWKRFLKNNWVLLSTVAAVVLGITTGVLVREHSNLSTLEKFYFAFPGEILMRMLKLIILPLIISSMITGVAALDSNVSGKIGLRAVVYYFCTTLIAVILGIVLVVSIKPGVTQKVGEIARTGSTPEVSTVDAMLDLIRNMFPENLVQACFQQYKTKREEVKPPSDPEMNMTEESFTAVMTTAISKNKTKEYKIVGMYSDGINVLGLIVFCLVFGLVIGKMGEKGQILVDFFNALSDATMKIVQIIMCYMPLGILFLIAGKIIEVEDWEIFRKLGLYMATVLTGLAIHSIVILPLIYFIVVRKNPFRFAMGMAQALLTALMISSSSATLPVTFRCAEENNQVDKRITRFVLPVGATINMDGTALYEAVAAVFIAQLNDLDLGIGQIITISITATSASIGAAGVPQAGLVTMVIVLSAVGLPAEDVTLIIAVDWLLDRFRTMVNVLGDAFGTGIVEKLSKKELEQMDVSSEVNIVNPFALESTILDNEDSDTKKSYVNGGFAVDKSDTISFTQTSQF

[3] = biological target: Excitatory amino acid transporter 1 (Homo sapiens, UniProt P43003); test: Displacement of [3H]D-Asp from human EAAT1 receptor expressed in HEK293 cells
Chain of Excitatory amino acid transporter 1 (P43003 whole entry): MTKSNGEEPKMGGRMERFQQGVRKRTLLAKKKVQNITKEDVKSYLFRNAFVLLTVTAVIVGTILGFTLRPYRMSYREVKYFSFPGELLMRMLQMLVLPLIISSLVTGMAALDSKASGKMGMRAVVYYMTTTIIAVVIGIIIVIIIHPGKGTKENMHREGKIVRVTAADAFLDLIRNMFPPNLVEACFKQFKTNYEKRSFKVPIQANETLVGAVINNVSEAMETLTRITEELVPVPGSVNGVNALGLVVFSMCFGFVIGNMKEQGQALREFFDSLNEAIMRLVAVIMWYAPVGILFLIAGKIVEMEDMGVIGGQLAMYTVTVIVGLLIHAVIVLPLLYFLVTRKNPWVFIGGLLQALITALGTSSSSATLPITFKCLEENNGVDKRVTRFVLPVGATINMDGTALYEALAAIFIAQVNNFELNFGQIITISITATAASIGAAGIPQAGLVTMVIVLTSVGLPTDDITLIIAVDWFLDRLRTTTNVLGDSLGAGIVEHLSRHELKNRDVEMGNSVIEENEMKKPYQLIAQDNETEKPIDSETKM

Chain of Excitatory amino acid transporter 2 (P43004 whole entry): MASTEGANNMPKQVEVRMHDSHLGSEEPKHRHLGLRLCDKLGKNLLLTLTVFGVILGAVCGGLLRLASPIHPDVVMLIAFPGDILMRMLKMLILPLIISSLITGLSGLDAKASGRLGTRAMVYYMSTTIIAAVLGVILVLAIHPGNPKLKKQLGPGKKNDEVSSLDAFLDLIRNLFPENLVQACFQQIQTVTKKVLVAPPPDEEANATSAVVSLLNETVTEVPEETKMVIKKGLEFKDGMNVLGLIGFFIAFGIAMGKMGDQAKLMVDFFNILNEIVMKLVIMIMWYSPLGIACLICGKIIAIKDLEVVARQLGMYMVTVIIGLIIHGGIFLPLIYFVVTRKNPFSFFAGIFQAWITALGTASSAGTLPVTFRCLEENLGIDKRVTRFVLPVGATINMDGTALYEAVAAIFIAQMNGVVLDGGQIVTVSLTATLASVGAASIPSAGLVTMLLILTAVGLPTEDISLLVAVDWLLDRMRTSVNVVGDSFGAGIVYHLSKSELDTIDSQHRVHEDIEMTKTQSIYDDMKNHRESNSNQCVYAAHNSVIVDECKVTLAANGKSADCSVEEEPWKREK

Structure (SMILES)	IC50 [1] [µM]	IC50 [2] [µM]	IC50 [3] [µM]
COc1ccc(C2C3=C(CC(c4ccc(OC)c(OC)c4)CC3=O)OC(=N)C2C#N)cc1 (centres undefined) [2-Amino-4-(4-methoxyphenyl)-7-(3,4-dimethoxyphenyl)-5-oxo-5,6,7,8-tetrahydro-4H-chromene-3-carbonitrile]	> 300	> 300	
COc1ccc(C2C3=C(CC(c4cccc5ccccc45)CC3=O)OC(=N)C2C#N)cc1 (centres undefined) [2-Amino-4-(4-methoxyphenyl)-7-(naphthalene-1-yl)-5-oxo-5,6,7,8-tetrahydro-4H-chromene-3-carbonitrile]	> 300	> 300	0.66
N#CC1CC2=C(CC(c3ccccc3)CC2=O)OC1=N (centres undefined) [2-Amino-5-oxo-7-phenyl-5,6,7,8-tetrahydro-4H-chromene-3-carbonitrile]	> 300	> 300	> 300
COc1cccc(C2C3=C(CC(c4ccccc4)CC3=O)OC(=N)C2C#N)c1OC (centres undefined) [2-amino-4-(2,3-dimethoxyphenyl)-5-oxo-7-phenyl-5,6,7,8-tetrahydro-4H-chromene-3-carbonitrile]			50.1
N#CC1C(=N)OC2=C(C(=O)CCC2)C1c1ccccc1F (centres undefined) [2-amino-4-(2-fluorophenyl)-5-oxo-5,6,7,8-tetrahydro-4H-chromene-3-carbonitrile]	> 300	> 300	> 300
N#CC1C(=N)OC2=C(C(=O)CC(c3cccs3)C2)C1c1ccc([N+](=O)[O-])cc1 (centres undefined) [2-amino-4-(4-nitrophenyl)-5-oxo-7-(thiophen-2-yl)-5,6,7,8-tetrahydro-4H-chromene-3-carbonitrile]	> 300	> 300	
N#CC1C(=N)OC2=C(C(=O)CC(c3ccccc3)C2)C1c1ccc([N+](=O)[O-])cc1 (centres undefined) [2-amino-4-(4-nitrophenyl)-5-oxo-7-phenyl-5,6,7,8-tetrahydro-4H-chromene-3-carbonitrile]	> 100	> 100	3.6
CC1CC(=O)C2=C(C1)OC(=N)C(C#N)C2c1ccc2c(c1)OCO2 (centres undefined) [2-amino-4-(benzo[d][1,3]dioxol-5-yl)-7-methyl-5-oxo-5,6,7,8-tetrahydro-4H-chromene-3-carbonitrile]	> 300	> 300	> 300
N#CC1C(=N)OC2=C(C(=O)CC(c3ccccc3)C2)C1c1ccc(-c2ccccc2)cc1 (centres undefined) [2-amino-4-(biphenyl-4-yl)-5-oxo-7-phenyl-5,6,7,8-tetrahydro-4H-chromene-3-carbonitrile]	> 100	> 100	
N#CC1C(=N)OC2=C(C(=O)CC(c3ccccc3)C2)C1c1cccnc1 (centres undefined) [2-amino-5-oxo-7-phenyl-4-(pyridin-3-yl)-5,6,7,8-tetrahydro-4H-chromene-3-carbonitrile]	> 300	> 300	30
N#CC1C(=N)OC2=C(C(=O)CC(c3ccco3)C2)C1c1ccccc1 (centres undefined) [2-amino-7-(furan-2-yl)-5-oxo-4-phenyl-5,6,7,8-tetrahydro-4H-chromene-3-carbonitrile]	> 300	> 300	
COc1ccc(C2C3=C(CC(c4ccco4)CC3=O)OC(=N)C2C#N)cc1OC(=O)N1CCOCC1 (centres undefined) [5-(2-amino-3-cyano-7-(furan-2-yl)-5-oxo-5,6,7,8-tetrahydro-4H-chromen-4-yl)-2-methoxyphenyl morpholine-4-carboxylate]	> 300	> 300	100

More lines, now with the values ahead:

IC50 [1] [µM]	IC50 [2] [µM]	IC50 [3] [µM]	Structure (SMILES)
> 300	> 300		N#CC1C(=N)OC2=C(C(=O)CC(c3ccccc3)C2)C1c1ccc2c(c1)OCO2 (centres undefined)
> 100	> 100		CSc1ccc(C2C3=C(CC(c4ccccc4)CC3=O)OC(=N)C2C#N)cc1 (centres undefined) [2-amino-4-(4-(methylthio)phenyl)-5-oxo-7-phenyl-5,6,7,8-tetrahydro-4H-chromene-3-carbonitrile]
> 100	> 100	3.6	N#CC1C(=N)OC2=C(C(=O)CC(c3ccccc3)C2)C1c1ccc2ccccc2c1 (centres undefined) [2-amino-4-(naphthalen-2-yl)-5-oxo-7-phenyl-5,6,7,8-tetrahydro-4H-chromene-3-carbonitrile]
> 100	> 100	30	N#CC1C(=N)OC2=C(C(=O)CC(c3ccccc3)C2)C1Cc1ccccc1 (centres undefined) [2-amino-4-benzyl-5-oxo-7-phenyl-5,6,7,8-tetrahydro-4H-chromene-3-carbonitrile]
> 316	> 300		CC1C2=C(CC(c3ccccc3)CC2=O)OC(=N)C1C#N (centres undefined) [2-amino-4-methyl-5-oxo-7-phenyl-5,6,7,8-tetrahydro-4H-chromene-3-carbonitrile]
> 300	> 300		COc1ccc(C2C3=C(CC(c4ccccc4Cl)CC3=O)OC(=N)C2C#N)cc1 (centres undefined) [2-amino-7-(2-chlorophenyl)-4-(4-methoxyphenyl)-5-oxo-5,6,7,8-tetrahydro-4H-chromene-3-carbonitrile]

Reference: BindingDB's records for doi:10.1021/jm8013458 (University of Copenhagen, 2009)
